Patent US10646488B2 (Araxes Pharma LLC, priority 2016, dated 2020)

Target: T1, KRAS G12C 1-169, his-tagged protein, GDP-loaded (Homo sapiens, UniProt P01116, G12C)
T1 construct: KRAS G12C 1-169, his-tagged protein, GDP-loaded
Assay: Covalent binding (% modification) to KRAS G12C by mass spectrometry
Details: covalent binding to KRAS G12C after a ten minute incubation period
Protocol: Test compounds were prepared as 10 mM stock solutions in DMSO (Fisher cat # BP-231-100). KRAS G12C 1-169, his-tagged protein, GDP-loaded was diluted to 2 μm in buffer (20 mM Hepes, 150 mM NaCl, 1 mM MgCl2). Compounds were tested for activity as follows:
Compounds were diluted to 50× final test concentration in DMSO in 96-well storage plates. Compound stock solutions were vortexed before use and observed carefully for any sign of precipitation. Dilutions were as follow: • For 100 μM final compound concentration, compounds were diluted to 5000 μM (5 μl 10 mM compound stock+5 μl DMSO and mixed well by pipetting. • For 30 μM final compound concentration, compounds were diluted to 1500 μM (3 μl 10 mM compound stock+17 μl DMSO) and mixed well by pipetting. • For 10 μM final compound concentration, compounds were diluted to 500 μM (2 μl 10 mM compound stock+38 μl DMSO) and mixed well by pipetting. 49 μl of the stock protein solution was added to each well of a 96-well PCR plate (Fisher cat #1423027). 1 μl of the diluted 50× compounds were added to appropriate wells in the PCR plate using 12-channel pipettor. Reactions were mixed carefully and thoroughly by pipetting up/down with a 200·1 multi-channel pipettor. […] 5 μl of 2% formic acid (Fisher cat # A117) in DI H2O was then added to each well followed by mixing with a pipette. The plate was then resealed with aluminum seal and stored on dry ice until analyzed as described below.
The above described assays were analyzed by mass spectrometry according to one of the following two procedures:
The MS instrument is set to positive polarity, 2 GHz resolution, and low mass (1700) mode and allowed to equilibrate for 30 minutes. The instrument is then calibrated, switched to acquisition mode and the appropriate method loaded.
After another 30 minute equilibration time, a blank batch (i.e., buffer) is run to ensure equipment is operating properly. The samples are thawed at 37° C. for 10 minutes, briefly centrifuged, and transfer to the bench top. Wells A1 and H12 are spiked with 1 uL 500 uM internal standard peptide, and the plates centrifuged at 2000×g for 5 minutes. The method is then run and masses of each individual well recorded.
The masses (for which integration data is desired) for each well are pasted into the platemap and exported from the analysis. Masses for the internal standards are exported as well. The data at 50 ppm is extracted for the +19 charge state, and identity of well A1 is assigned using the internal standard spike and integrated. Peak data is exported as a TOF list and the above steps are repeated individually, for the +20, 21, 22, 23, 24, and 25 charge states.
The masses and peak intensities of KRAS G12C protein species were measured using a Dionex RSLCnano system (Thermo Scientific) connected to a Q Exactive Plus mass spectrometer (Thermo Scientific).
[…] of sample was each loaded onto a Aeris™ 3.6 μm WIDEPORE C4 200 Å, LC Column 50×2.1 mm column maintained at 40° C. at a flow rate of 600 μl min^−1 with […] (0.1% formic acid in acetonitrile). The liquid chromatography conditions were 20% solvent B for 1 min, 20% to 60% solvent B for 1.5 min, 60% to 90% solvent for 0.5 min, 90% solvent B for 0.2 min, 90% to 20% solvent B for 0.2 min, and then equilibrated for 1.6 min before the following sample injection. The flow rate was maintained at 600 μl min^−1 throughout the sample analysis.
The mass spectrometer was operated in profile mode at a resolution of 17500, 5 microscans, using 50 msec max injection time and an AGC target of 1e6, and a full mass range from 800-1850 m/z was recorded. The HCD trapping gas was optimized for maximum sensitivity for intact proteins. The ionization method was electrospray ionization, which used a spray voltage of 4 kV, sheath gas flow set to 50 au, auxiliary gas flow set to 10 au and sweep gas flow set to 1 au. […]

Row | Compound | Binding %
1 | C=CC(=O)N1CCN(c2nc(NC3CCN(C4CC4)CC3)nc3c(F)c(-c4c(C)ccc5[nH]ncc45)c(Cl)cc23)[C@@H](C)C1 (atropisomer, axis not shown) [Compound 13, 1-((S)-4-(6-chloro-2-(1-cyclopropyl-piperidin-4-ylamino)-8-fluoro-7-((R)-5-methyl-1H-indazol-4-yl)quinazolin-4-yl)-3-methyl-piperazin-1-yl) prop-2-en-1-one] | +++ (+++ indicates binding activity greater than 90%)
2 | C=CC(=O)N1CCN(c2nc(NC3CCN(C4CC4)CC3)nc3c(F)c(-c4c(C)ccc5[nH]ncc45)c(Cl)cc23)[C@@H](C)C1 (atropisomer, axis not shown) [Compound 14, 1-((S)-4-(6-chloro-2-((1-cyclopropyl-piperidin-4-yl)amino)-8-fluoro-7-((S)-5-methyl-1H-indazol-4-yl)quinazolin-4-yl)-3-methyl-piperazin-1-yl) prop-2-en-1-one] | + (+ indicates binding activity up to 50%)
3 | C=CC(=O)N1C[C@H](C)N(c2nc(N3CC(N(C)C)C3)nc3c(F)c(-c4c(O)cccc4F)c(Cl)cc23)C[C@H]1C (atropisomer, axis not shown) [Compound 52, 1-((2R,5S)-4-((S)-6-chloro-2-(3-(dimethylamino)azetidin-1-yl)-8-fluoro-7-(2-fluoro-6-hydroxyphenyl)quinazolin-4-yl)-2,5-dimethyl-piperazin-1-yl) prop-2-en-1-one] | +++ (+++ indicates binding activity greater than 90%)
4 | C=CC(=O)N1C[C@H](C)N(c2nc(N3CC(N(C)C)C3)nc3c(F)c(-c4c(O)cccc4F)c(Cl)cc23)C[C@H]1C (atropisomer, axis not shown) [Compound 53, 1-((2R,5S)-4-((R)-6-chloro-2-(3-(dimethylamino)azetidin-1-yl)-8-fluoro-7-(2-fluoro-6-hydroxyphenyl)quinazolin-4-yl)-2,5-dimethyl-piperazin-1-yl) prop-2-en-1-one] | + (+ indicates binding activity up to 50%)
5 | C=CC(=O)N1CCN(c2nc(N3CC(N(C)C)C3)nc3c(F)c(-c4c(O)cccc4F)c(Cl)cc23)[C@@H](C)C1 (atropisomer, axis not shown) [Compound 58, 1-((S)-4-((S)-6-chloro-2-(3-(dimethylamino)azetidin-1-yl)-8-fluoro-7-(2-fluoro-6-hydroxyphenyl)quinazolin-4-yl)-3-methyl-piperazin-1-yl) prop-2-en-1-one] | +++ (+++ indicates binding activity greater than 90%)
6 | C=CC(=O)N1CCN(c2nc(N3CC(N(C)C)C3)nc3c(F)c(-c4c(O)cccc4F)c(Cl)cc23)[C@@H](C)C1 (atropisomer, axis not shown) [Compound 59, 1-((S)-4-((R)-6-chloro-2-(3-(dimethylamino)azetidin-1-yl)-8-fluoro-7-(2-fluoro-6-hydroxyphenyl)quinazolin-4-yl)-3-methyl-piperazin-1-yl) prop-2-en-1-one] | + (+ indicates binding activity up to 50%)
7 | C=CC(=O)N1CCN(c2nc(N3CC(N(C)C)C3)nc3c(F)c(-c4c(O)cccc4F)c(Cl)cc23)C[C@H]1C (atropisomer, axis not shown) [Compound 60, 1-((R)-4-((S)-6-chloro-2-(3-(dimethylamino)azetidin-1-yl)-8-fluoro-7-(2-fluoro-6-hydroxyphenyl)quinazolin-4-yl)-2-methyl-piperazin-1-yl) prop-2-en-1-one] | +++ (+++ indicates binding activity greater than 90%)
8 | C=CC(=O)N1CCN(c2nc(N3CC(N(C)C)C3)nc3c(F)c(-c4c(O)cccc4F)c(Cl)cc23)C[C@H]1C (atropisomer, axis not shown) [Compound 61, 1-((R)-4-((R)-6-chloro-2-(3-(dimethylamino)azetidin-1-yl)-8-fluoro-7-(2-fluoro-6-hydroxyphenyl)quinazolin-4-yl)-2-methyl-piperazin-1-yl) prop-2-en-1-one] | + (+ indicates binding activity up to 50%)
9 | C=CC(=O)N1CCN(c2nc(OCCN3CC(F)(F)C3)nc3c(F)c(-c4c(O)cccc4F)c(Cl)cc23)C[C@H]1C (atropisomer, axis not shown) [Compound 62, 1-((R)-4-((R)-6-chloro-2-(2-(3,3-difluoroazetidin-1-yl)ethoxy)-8-fluoro-7-(2-fluoro-6-hydroxyphenyl)quinazolin-4-yl)-2-methyl-piperazin-1-yl) prop-2-en-1-one] | + (+ indicates binding activity up to 50%)
10 | C=CC(=O)N1CCN(c2nc(OCCN3CC(F)(F)C3)nc3c(F)c(-c4c(O)cccc4F)c(Cl)cc23)C[C@H]1C (atropisomer, axis not shown) [Compound 63, 1-((R)-4-((S)-6-chloro-2-(2-(3,3-difluoroazetidin-1-yl)ethoxy)-8-fluoro-7-(2-fluoro-6-hydroxyphenyl)quinazolin-4-yl)-2-methyl-piperazin-1-yl) prop-2-en-1-one] | +++ (+++ indicates binding activity greater than 90%)
11 | C=CC(=O)N1CCN(c2nc(N3CC(N(C)C)C3)nc3c(F)c(-c4c(C)ccc5cn[nH]c45)c(Cl)cc23)C[C@H]1C (atropisomer, axis not shown) [Compound 70, 1-((R)-4-((R)-6-chloro-2-(3-(dimethylamino)azetidin-1-yl)-8-fluoro-7-(6-methyl-1H-indazol-7-yl)quinazolin-4-yl)-2-methyl-piperazin-1-yl) prop-2-en-1-one] | +++ (+++ indicates binding activity greater than 90%)
12 | C=CC(=O)N1CCN(c2nc(N3CC(N(C)C)C3)nc3c(F)c(-c4c(C)ccc5cn[nH]c45)c(Cl)cc23)C[C@H]1C (atropisomer, axis not shown) [Compound 71, 1-((R)-4-((S)-6-chloro-2-(3-(dimethylamino)azetidin-1-yl)-8-fluoro-7-(6-methyl-1H-indazol-7-yl)quinazolin-4-yl)-2-methyl-piperazin-1-yl) prop-2-en-1-one] | + (+ indicates binding activity up to 50%)
13 | C=CC(=O)N1C[C@H](C)N(c2nc(N3CC(N(C)C)C3)nc3c(F)c(-c4c(C)ccc5cn[nH]c45)c(Cl)cc23)C[C@H]1C (atropisomer, axis not shown) [Compound 72, 1-((2R,5S)-4-((R)-6-chloro-2-(3-(dimethylamino)azetidin-1-yl)-8-fluoro-7-(6-methyl-1H-indazol-7-yl)quinazolin-4-yl)-2,5-dimethyl-piperazin-1-yl) prop-2-en-1-one] | +++ (+++ indicates binding activity greater than 90%)
14 | C=CC(=O)N1C[C@H](C)N(c2nc(N3CC(N(C)C)C3)nc3c(F)c(-c4c(C)ccc5cn[nH]c45)c(Cl)cc23)C[C@H]1C (atropisomer, axis not shown) [Compound 73, 1-((2R,5S)-4-((S)-6-chloro-2-(3-(dimethylamino)azetidin-1-yl)-8-fluoro-7-(6-methyl-1H-indazol-7-yl)quinazolin-4-yl)-2,5-dimethyl-piperazin-1-yl) prop-2-en-1-one] | + (+ indicates binding activity up to 50%)

Same assay, conditions: covalent binding to KRAS G12C after a three minute incubation period

Row | Compound | Binding %
15 | 1-((2R,5S)-4-(6- chloro-2-(2- (diethylamino) ethoxy)-8-fluoro- 7-((S)-6-methyl- 1H-indazol-7-yl) quinazolin-4-yl)- 2,5-dimethyl- piperazin-1-yl) prop-2-en-1-one [Compound 157] | + (+ indicates binding activity greater than 0% and up to 50%)
